Results on two compounds are retold here after patent publication US12577529B2, “Methods for producing neural cells” (QUIVER HOLDINGS INC., priority 2021, dated 2026).

The subject of experiment [1] is NGN2 neurons (human iPS cell-derived excitatory neurons). The experiment can be described thus: Optopatch excitability assay in NGN2 neurons. It is filed as cell-based. The source says: To characterize the intrinsic excitability activity of human iPS cell-derived excitatory neurons with the Optopatch platform the two iPS cell lines, “11a” and “20b”, from Example 1 were used. These two iPS cell lines were derived from two neurologically healthy male subjects. The 11a and 20b iPS cells are converted into excitatory neurons using a transcriptional programming approach whereby the pro-neuronal transcription factor NEUROGENIN2 (NGN2) is overexpressed using doxycycline responsive lentiviral constructs as described in Example 1. This process drives the rapid conversion of iPS cells into neurons that resemble cortical excitatory neurons.
The resulting neurons are cryopreserved and subsequently thawed.
The thawed cells are co-cultured with primary rodent glia to facilitate neuronal electrophysiological maturation. To enable Optopatch measurements, the cells are transduced with lentiviral constructs expressing Optopatch components driven by the neuronal excitatory promoter CAMK2A and signals are recorded from the cells 2 weeks later. At the time of Optopatch measurements, the NGN2 excitatory neuron are homogeneous and electrophysiologically active, yielding highly stereotyped and reproducible data across cells, dishes, differentiation rounds and cell lines.
Optopatch measurements are carried out in a custom-built ultra-widefield fluorescence microscope, as described herein. Using this platform, intrinsic excitability properties are recorded for 11a and 20b NGN2 neuronal cultures at DIV25 in the presence of synaptic blockers NBQX, D-AP5 and Gabazine to block AMPA, NMDA and GABA currents, respectively. A custom blue light stimulus protocol of three 500 ms blue light steps of increasing intensity (1, 15 and 75 mW/cm^2) followed by two 2 second ramps of linearly increasing intensity (0.5-10 mW/cm^2 and 0.5-110 mW/cm^2) is used to elicit a range of activity from individual neurons. ˜50 to 100 neurons are simultaneously stimulated and recorded in a single field of view.
High signal-to-noise ratio (SNR) fluorescence-time traces are generated, and action potentials can be detected with high fidelity. Individual action potentials are detected for each of the hundreds of neurons and recorded with Optopatch and plotted on a spike raster plot, where each row represents a single neuron, and each dot represents a detected spike. While individual neurons show a diversity of spiking behavior throughout the stimulus protocol, the average firing rate of the population is remarkably similar for both cell lines.
The sensitivity of an excitability assay for detecting pharmacological modulation in NGN2 neurons using the well-characterized compound quinidine, which is reported to increase spike width and reduce spike activity is tested. […] These changes can be observed in the individual traces at 10 μM and 30 μM quinidine.
Additional quantification of both the response to quinidine and retigabine in is determined using an Optopatch excitability assay. Quinidine has been reported to block several voltage-, Na^+ and Ca^++ gated potassium channels (KNa1.1, KCa5.1, K2P16.1, Kv1.5, Kv1.7, Kv10.1, Kv10.2), including two-pore forming channels as well as voltage gated Na^+ channels.

The target in the next experiment is Kv7.2 (Homo sapiens, UniProt O43526). To be noted: read-out: Kv7.2 EC50; cited from earlier work.
Chain of Kv7.2 (O43526 whole entry): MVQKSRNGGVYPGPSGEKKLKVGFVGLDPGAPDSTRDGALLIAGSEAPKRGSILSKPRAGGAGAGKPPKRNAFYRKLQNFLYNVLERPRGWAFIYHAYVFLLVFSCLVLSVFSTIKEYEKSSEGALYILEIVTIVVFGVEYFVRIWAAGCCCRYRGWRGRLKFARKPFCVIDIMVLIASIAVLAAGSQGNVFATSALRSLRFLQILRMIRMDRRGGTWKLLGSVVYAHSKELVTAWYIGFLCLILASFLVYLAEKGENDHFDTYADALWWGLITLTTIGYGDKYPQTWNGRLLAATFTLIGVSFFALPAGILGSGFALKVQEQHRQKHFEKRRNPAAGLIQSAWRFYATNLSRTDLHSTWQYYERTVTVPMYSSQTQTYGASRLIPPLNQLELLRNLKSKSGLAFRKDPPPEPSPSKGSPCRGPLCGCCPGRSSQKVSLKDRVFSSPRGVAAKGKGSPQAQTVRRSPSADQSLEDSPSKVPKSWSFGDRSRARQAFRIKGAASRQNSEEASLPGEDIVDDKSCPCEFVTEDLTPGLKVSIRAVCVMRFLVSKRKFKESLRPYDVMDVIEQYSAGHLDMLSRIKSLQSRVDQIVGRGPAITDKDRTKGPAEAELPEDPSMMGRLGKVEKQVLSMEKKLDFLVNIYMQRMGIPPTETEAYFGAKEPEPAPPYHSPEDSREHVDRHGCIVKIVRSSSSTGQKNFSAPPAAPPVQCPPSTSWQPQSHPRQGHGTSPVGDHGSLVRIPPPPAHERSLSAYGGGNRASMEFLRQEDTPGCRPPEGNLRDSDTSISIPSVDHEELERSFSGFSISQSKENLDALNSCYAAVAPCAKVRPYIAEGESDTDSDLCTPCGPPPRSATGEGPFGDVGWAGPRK
Where [2] appears, read: maximum concentration tested (30 μM).

Take `C=C[C@H]1C[N@@]2CC[C@H]1C[C@@H]2[C@@H](O)c1ccnc2ccc(OC)cc12` [quinidine]: the “changes to spike waveform and firing rate” value in experiment [1] (acute addition, observed in individual traces at 10 μM and 30 μM) was “dramatic changes to both the spike waveform and firing rate”. Moreover, the “broadening of the spikes” value in experiment [1] (concentration dependent) is “concentration dependent broadening of the spikes”. Also, the “mean firing rate (spike rate) versus vehicle” value in experiment [1] (different concentrations, with increased blue light stimulus) is on record as “dramatic reduction in spike rate”. For the same compound, in experiment [1] (higher stimulation intensities (15 and 75 mW/cm^2)), the spike rate entry is “concentration dependent reduction in the spike rate”. Moreover, in experiment [1] (setting [2]), the “magnitude of the AhP depth (measured from the baseline fluorescence before the action potential)” value is “decreases”, the “spike rise time (measured from start to peak of the action potential)” value is “increases”, the “spike width (measured from the base of the action potential)” value is listed as “increases” and the “time to the maximum of the after hyperpolarization (AhP) depth” value is on record as “increases”.
For `CCOC(=O)Nc1ccc(NCc2ccc(F)cc2)cc1N` [retigabine], the EC50 at Kv7.2 was 2500 nM.

Usually EC50 stands for the midpoint of the concentration-response curve.
